Results taken from patent US20250145633A1, “SUBSTITUTED FURANOPYRIMIDINE COMPOUNDS AS PDE1 INHIBITORS” (Dart NeuroScience, LLC, priority 2017, published 2025).

biological target: human PDE1B enzyme (Homo sapiens (Human), UniProt Q01064); test: IMAP TR-FRET PDE1B enzymatic assay; assay type: biochemical; conditions: negative log of half-maximal molar inhibitory concentration; 200 nM FAM-cAMP; values given as bins
Outline: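 Full-length GST-tagged human PDE1B (250 pg/well) in IMAP BSA buffer with 10 U/ml calmodulin and 2.5 mM CaCl2; compound pre-incubated 5 min at room temperature, then 200 nM (final) FAM-cAMP for 30 min. IMAP binding reagent/Tb added, 1 h; TR-FRET 520/490 ratio read. IC50 from sigmoidal dose-response fit.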

| SMILES | PDE1b (pIC50) |
| --- | --- |
| Cc1oc2ncnc(NC3(C)CC3)c2c1C(=O)N1CCc2c(nc(Cl)nc2NC(C)C)C1 [Example 789, 5-{2-Chloro-4-[(propan-2-yl)amino]-5H,6H,7H,8H-pyrido[3,4-d]pyrimidine-7-carbonyl}-6-methyl-N-(1-methylcyclopropyl)furo[2,3-d]pyrimidin-4-amine] | >8 |
| Cc1oc2ncnc(NC3(C)CC3)c2c1C(=O)N1CCc2c(ncnc2OC2CCC2)C1 [Example 810, 5-{4-Cyclobutoxy-5H,6H,7H,8H-pyrido[3,4-d]pyrimidine-7-carbonyl}-6-methyl-N-(1-methylcyclopropyl)furo[2,3-d]pyrimidin-4-amine] | >8 |
| Cc1oc2ncnc(NC3(C)CC3)c2c1C(=O)NCc1ccc(OCF)cn1 [Example 11, N-((5-(Fluoromethoxy)pyridin-2-yl)methyl)-6-methyl-4-((1-methylcyclopropyl)amino)furo[2,3-d]pyrimidin-5-carboxamide] | >8 |
| COc1ccccc1[C@H]1[C@@H]2CN(C(=O)c3c(C)oc4ncnc(NC5(C)CC5)c34)C[C@@H]21 [Example 209, 5-[(1R,5S,6S)-6-(2-Methoxyphenyl)-3-azabicyclo[3.1.0]hexane-3-carbonyl]-6-methyl-N-(1-methylcyclopropyl)furo[2,3-d]pyrimidin-4-amine] | >8 |
| Cc1ccc(N2CCN(C(=O)c3c(C)oc4ncnc(NC5(C)CC5)c34)CC2)nc1 [Example 44, 6-Methyl-N-(1-methylcyclopropyl)-5-[4-(5-methylpyridin-2-yl)piperazine-1-carbonyl]furo[2,3-d]pyrimidin-4-amine] | >8 |
| COc1cc(CNC(=O)c2c(C)oc3ncnc(NC4(C)CC4)c23)ncn1 [Example 666, N-[(6-Methoxypyrimidin-4-yl)methyl]-6-methyl-4-[(1-methylcyclopropyl)amino]furo[2,3-d]pyrimidine-5-carboxamide] | >8 |
| Cc1oc2ncnc(NC3(C)CC3)c2c1C(=O)NCc1ncc(Cl)cn1 [Example 716, N-[(5-Chloropyrimidin-2-yl)methyl]-6-methyl-4-[(1-methylcyclopropyl)amino]furo[2,3-d]pyrimidine-5-carboxamide] | >8 |
| Cc1oc2ncnc(NC3(C)CC3)c2c1C(=O)N1CCC(c2ncc(O)cn2)CC1 [Example 355, 2-(1-{6-Methyl-4-[(1-methylcyclopropyl)amino]furo[2,3-d]pyrimidine-5-carbonyl}piperidin-4-yl)pyrimidin-5-ol] | >8 |

same assay, conditions: negative log of half-maximal molar inhibitory concentration; 200 nM FAM-cAMP; values given as bins; read-out: PDE1b (pIC50) (converted)

| SMILES | IC50 |
| --- | --- |
| Cc1oc2ncnc(NC3(C)CC3)c2c1C(=O)N1CCc2c(nc(-c3ccc(F)cc3)[nH]c2=O)C1 [Example 424, 2-(4-Fluorophenyl)-7-{6-methyl-4-[(1-methylcyclopropyl)amino]furo[2,3-d]pyrimidine-5-carbonyl}-3H,4H,5H,6H,7H,8H-pyrido[3,4-d]pyrimidin-4-one] | 0.01 to 0.1 µM |
| Cc1oc2ncnc(NC3(C)CC3)c2c1C(=O)NCc1csc(N2CCOCC2)n1 [Example 739, 6-Methyl-4-[(1-methylcyclopropyl)amino]-N-{[2-(morpholin-4-yl)-1,3-thiazol-4-yl]methyl}furo[2,3-d]pyrimidine-5-carboxamide] | 0.01 to 0.1 µM |
| Cc1oc2ncnc(NC3(C)CC3)c2c1C(=O)N(C)Cc1cccs1 [Example 224, N,6-Dimethyl-4-[(1-methylcyclopropyl)amino]-N-(thiophen-2-ylmethyl)furo[2,3-d]pyrimidine-5-carboxamide] | 0.01 to 0.1 µM |
| Cc1oc2ncnc(NC3(C)CC3)c2c1C(=O)NC1CCN(c2ccccn2)CC1 [Example 650, 6-Methyl-4-[(1-methylcyclopropyl)amino]-N-[1-(pyridin-2-yl)piperidin-4-yl]furo[2,3-d]pyrimidine-5-carboxamide] | 0.01 to 0.1 µM |
| COCCn1nc(C)c(NC(=O)c2c(C)oc3ncnc(NC4(C)CC4)c23)c1C [Example 420, N-[1-(2-Methoxyethyl)-3,5-dimethyl-1H-pyrazol-4-yl]-6-methyl-4-[(1-methylcyclopropyl)amino]furo[2,3-d]pyrimidine-5-carboxamide] | 0.01 to 0.1 µM |
| Cc1oc2ncnc(NC3(C)CC3)c2c1C(=O)NC(C)c1ncc(F)cn1 (stereo in doubt) [Example 518, N-[(1S)-1-(5-Fluoropyrimidin-2-yl)ethyl]-6-methyl-4-[(1-methylcyclopropyl)amino]furo[2,3-d]pyrimidine-5-carboxamide] | 0.1 to 1 µM |
| Cc1oc2ncnc(NC3(C)CC3)c2c1C(=O)N1CCc2ncc(OCF)cc2C1 [Example 768, 5-[3-(Fluoromethoxy)-5,6,7,8-tetrahydro-1,6-naphthyridine-6-carbonyl]-6-methyl-N-(1-methylcyclopropyl)furo[2,3-d]pyrimidin-4-amine] | 0.01 to 0.1 µM |
| COc1cc(CNC(=O)c2c(C)oc3ncnc(NC4(C)CC4)c23)ccc1F [Example 336, N-[(4-Fluoro-3-methoxyphenyl)methyl]-6-methyl-4-[(1-methylcyclopropyl)amino]furo[2,3-d]pyrimidine-5-carboxamide] | 0.01 to 0.1 µM |
| Cc1oc2ncnc(NC3(C)CC3)c2c1C(=O)N1Cc2nc(C(C)C)[nH]c(=O)c2C1 [Example 682, 6-{6-Methyl-4-[(1-methylcyclopropyl)amino]furo[2,3-d]pyrimidine-5-carbonyl}-2-(propan-2-yl)-3H,4H,5H,6H,7H-pyrrolo[3,4-d]pyrimidin-4-one] | 0.1 to 1 µM |
| Cc1oc2ncnc(NC3(C)CC3)c2c1C(=O)NCc1ncc(F)cn1 [Example 292, N-[(5-Fluoropyrimidin-2-yl)methyl]-6-methyl-4-[(1-methylcyclopropyl)amino]furo[2,3-d]pyrimidine-5-carboxamide] | 0.01 to 0.1 µM |
| Cc1oc2ncnc(NC3(C)CC3)c2c1C(=O)N(C)Cc1ccsc1 [Example 223, N,6-Dimethyl-4-[(1-methylcyclopropyl)amino]-N-(thiophen-3-ylmethyl)furo[2,3-d]pyrimidine-5-carboxamide] | 0.01 to 0.1 µM |
| COc1ccccc1OC1CN(C(=O)c2c(C)oc3ncnc(NC4(C)CC4)c23)C1 [Example 589, 5-[3-(2-Methoxyphenoxy)azetidine-1-carbonyl]-6-methyl-N-(1-methylcyclopropyl)furo[2,3-d]pyrimidin-4-amine] | 0.01 to 0.1 µM |
| Cc1cccc(NC(=O)c2c(C)oc3ncnc(NC4(C)CC4)c23)n1 [Example 426, 6-Methyl-4-[(1-methylcyclopropyl)amino]-N-(6-methylpyridin-2-yl)furo[2,3-d]pyrimidine-5-carboxamide] | 0.01 to 0.1 µM |
| Cc1oc2ncnc(NC3(C)CC3)c2c1C(=O)N(C)Cc1nccs1 [Example 701, N,6-Dimethyl-4-[(1-methylcyclopropyl)amino]-N-(1,3-thiazol-2-ylmethyl)furo[2,3-d]pyrimidine-5-carboxamide] | 0.1 to 1 µM |
| CCCCNC(=O)c1c(C)oc2ncnc(NC3(C)CC3)c12 [Example 213, N-Butyl-6-methyl-4-[(1-methylcyclopropyl)amino]furo[2,3-d]pyrimidine-5-carboxamide] | 0.01 to 0.1 µM |
| Cc1oc2ncnc(NC3(C)CC3)c2c1C(=O)N1CCc2c(ncnc2NC2CC2)C1 [Example 342, 5-[4-(Cyclopropylamino)-5H,6H,7H,8H-pyrido[3,4-d]pyrimidine-7-carbonyl]-6-methyl-N-(1-methylcyclopropyl)furo[2,3-d]pyrimidin-4-amine] | 0.01 to 0.1 µM |
| Cc1oc2ncnc(NC3(C)CC3)c2c1C(=O)N1CCc2c(ncnc2N(C)C2CC2)C1 [Example 790, 5-{4-[Cyclopropyl(methyl)amino]-5H,6H,7H,8H-pyrido[3,4-d]pyrimidine-7-carbonyl}-6-methyl-N-(1-methylcyclopropyl)furo[2,3-d]pyrimidin-4-amine] | 0.01 to 0.1 µM |
| Cc1oc2ncnc(NC3(C)CC3)c2c1C(=O)N1CCn2c(Br)cnc2C1 [Example 624, 5-{3-Bromo-5H,6H,7H,8H-imidazo[1,2-a]pyrazine-7-carbonyl}-6-methyl-N-(1-methylcyclopropyl)furo[2,3-d]pyrimidin-4-amine] | 0.01 to 0.1 µM |
| Cc1oc2ncnc(NC3(C)CC3)c2c1C(=O)N1CCCC2(C1)C(=O)Nc1ccccc12 (stereo not drawn) [Example 375, 1′-{6-Methyl-4-[(1-methylcyclopropyl)amino]furo[2,3-d]pyrimidine-5-carbonyl}-1,2-dihydrospiro[indole-3,3′-piperidine]-2-one] | 0.1 to 1 µM |
| Cc1oc2ncnc(NC3(C)CC3)c2c1C(=O)N(C)Cc1ncco1 [Example 692, N,6-Dimethyl-4-[(1-methylcyclopropyl)amino]-N-(1,3-oxazol-2-ylmethyl)furo[2,3-d]pyrimidine-5-carboxamide] | 0.1 to 1 µM |
| Cc1oc2ncnc(NC3(C)CC3)c2c1C(=O)NCc1ncccn1 [Example 653, 6-Methyl-4-[(1-methylcyclopropyl)amino]-N-(pyrimidin-2-ylmethyl)furo[2,3-d]pyrimidine-5-carboxamide] | 0.01 to 0.1 µM |
| Cc1oc2ncnc(NC3(C)CC3)c2c1C(=O)N1CCn2nc(C#N)cc2C1 [Example 636, 5-{6-Methyl-4-[(1-methylcyclopropyl)amino]furo[2,3-d]pyrimidine-5-carbonyl}-4H,5H,6H,7H-pyrazolo[1,5-a]pyrazine-2-carbonitrile] | 0.1 to 1 µM |
| Cc1oc2ncnc(NC3(C)CC3)c2c1C(=O)N1CCc2c(ncnc2C2CCOCC2)C1 [Example 803, 6-Methyl-N-(1-methylcyclopropyl)-5-[4-(oxan-4-yl)-5H,6H,7H,8H-pyrido[3,4-d]pyrimidine-7-carbonyl]furo[2,3-d]pyrimidin-4-amine] | 0.01 to 0.1 µM |
| COc1ccc(-c2cc(CNC(=O)c3c(C)oc4ncnc(NC5(C)CC5)c34)no2)cc1 [Example 326, N-{[5-(4-Methoxyphenyl)-1,2-oxazol-3-yl]methyl}-6-methyl-4-[(1-methylcyclopropyl)amino]furo[2,3-d]pyrimidine-5-carboxamide] | 0.01 to 0.1 µM |
| CCOCCNC(=O)c1c(C)oc2ncnc(NC3(C)CC3)c12 [Example 171, N-(2-Rthoxyethyl)-6-methyl-4-[(1-methylcyclopropyl)amino]furo[2,3-d]pyrimidine-5-carboxamide] | 0.1 to 1 µM |
